Measurements: patent US11440903B2, “Salt form and crystal form of compound as FGFR4 inhibitor and preparation method thereof” (GUANGDONG ZHONGSHENG PHARMACEUTICAL CO., LTD, priority 2017, dated 2022)

Assays:
[1] = Solid stability test of the crystal forms (influence factors and acceleration tests; appearance, XRPD, HPLC content and impurities); format: physicochemical; conditions: for photostability (stability under light radiation), conclusion in words / stability under acceleration conditions, conclusion in words / stability under high humidity conditions, conclusion in words / thermal stability (high temperature), conclusion in words: conclusion of influence factors and acceleration tests
Excerpt: A sample of the crystal form A was placed on the bottom of a glass sample bottle, and spread to a thin layer. The sample stored under high temperature, high humidity, and acceleration conditions was placed in a bottle of which the mouth was packed with a pierced aluminum foil to ensure the sample to be sufficiently exposed to ambient air; the sample stored under light radiation conditions was placed at room temperature in a standing bottle of which the mouth was open, the sample was exposed to a light resource, and sampled for detection after being radiated by sufficient energy. Samples were taken and analyzed at various time points, and the test results were compared with the initial test results of 0 day, the inspection items included appearance, content and impurities, and the test results are shown in Table 9.
A sample of the crystal form B (10 mg) was placed on the bottom of a glass sample bottle, and spread to a thin layer. The sample stored under high temperature, high humidity, and acceleration conditions were placed in a bottle of which the mouth was packed with a pierced aluminum foil to ensure the sample to be sufficiently exposed to ambient air; the sample stored under light radiation conditions was placed at room temperature in a standing bottle of which the mouth was open, the sample was exposed to a light resource, and sampled for detection after being radiated by sufficient energy, the control sample stored in dark (open, the whole sample bottle was sealed with aluminum foil to keep the content in dark) and the sample stored under light radiation conditions were placed together to exclude environmental influence on the samples. Samples were taken and analyzed at various time points, and the test results were compared with the initial test results of 0 day, the inspection items included appearance, crystal form, content and impurities, the test results are shown in Table 10.
(§1) A sample of the crystal form C was taken and placed on the bottom of a glass sample bottle, and spread to a thin layer. The sample stored under high temperature, high humidity, and acceleration conditions was placed in a bottle of which the mouth was packed with a pierced aluminum foil to ensure the sample to be sufficiently exposed to ambient air; the sample stored under light radiation conditions was placed at room temperature in a standing bottle of which the mouth was open, the sample was exposed to a light resource, and sampled for detection after being radiated by sufficient energy. Samples were taken and analyzed at various time points, and the test results were compared with the initial test results of 0 day.
as §1, with “D” for “C”
A sample of the crystal form E (10 mg) was taken and placed on the bottom of a glass sample bottle, and spread to a thin layer. […]

[2] = Stability of the crystal form on stirring as suspension in solvent (40° C., 2 days); format: physicochemical
Procedure: 30 mg of the compound represented by formula (I) was weighed and added into a glass flask, 400 μL acetonitrile-water (1:1) was added to form a suspension. A sample of the suspension was placed on a magnetic stirrer (40° C.) for a dark stirring experiment. The sample of the suspension was centrifuged after stirring at 40° C. for 2 days, and then the residual sample was dried in a vacuum drying oven (30° C.) overnight to give a crystal form A of the compound represented by formula (I). The XRPD pattern of the crystal form A of the compound represented by formula (I) is shown in FIG. 1, the DSC pattern is shown in FIG. 2, and the TGA pattern is shown in FIG. 3.
30 mg of the compound represented by formula (I) was weighed and added into a glass flask, and 400 μL ethyl acetate was added to form a suspension. A sample of the suspension was placed on a magnetic stirrer (40° C.) for dark stirring experiment. The sample of the suspension was centrifuged after stirring at 40° C. for 2 days, and then the residual sample was dried in a vacuum drying oven (30° C.) overnight. The crystal form was detected by XRPD to give a crystal form A of the compound represented by formula (I).
30 mg of the compound represented by formula (I) was weighed and added into a glass flask, and 400 μL methanol was added to form a suspension. A sample of the suspension was placed on a magnetic stirrer (40° C.) for dark stirring experiment. The sample of the suspension was centrifuged after stirring at 40° C. for 2 days, and then the residual sample was dried in a vacuum drying oven (30° C.) overnight to give a crystal form B of the compound represented by formula (I). The XRPD pattern of the crystal form B of the compound represented by formula (I) is shown in FIG. 4, the DSC pattern is shown in FIG. 5, and the TGA pattern is shown in FIG. 6.
50 mg of the compound represented by formula (I) was weighed and added into a 1.5 mL liquid vial, and 200 μL methanol was added thereto, the obtained mixture was homogeneously mixed under ultrasound. The dissolved sample was quickly centrifuged, and the supernatant was placed in a centrifuge tube, the mouth of the tube was packed with a pierced aluminum foil, and then the tube was placed in a fume cupboard for volatilization; the sample of the suspension was placed on a magnetic stirring heater (40° C.) for stirring (in dark), and quickly centrifuged after 2 days. The resultant solid was collected and dried at 30° C. in a vacuum drying oven overnight to give the crystal form C of the compound represented by formula (I). The XRPD pattern of the crystal form C of the compound represented by formula (I) is shown in FIG. 7, the DSC pattern is shown in FIG. 8, and the TGA pattern is shown in FIG. 9.
50 mg of the compound represented by formula (I) was weighed and added into a 1.5 mL liquid vial, and 200 μL ethanol was added thereto, and the obtained mixture was homogeneously mixed under ultrasound. The dissolved sample was quickly centrifuged, the supernatant was placed into a centrifuge tube, and the mouth of the tube was packed with a pierced aluminum foil, and placed in a fume cupboard for volatilization; the sample of the suspension was placed on a magnetic stirring heater (40° C.) for stirring (in dark), and quickly centrifuged after 2 days. The solid obtained as above was collected and dried at 30° C. in a vacuum drying oven overnight to give a crystal form D of the compound represented by formula (I). The XRPD pattern of the crystal form D of the compound represented by formula (I) is shown in FIG. 10, the DSC pattern is shown in FIG. 11, and the TGA pattern is shown in FIG. 12.
35 mg of the compound represented by formula (II) was weighed and added into a 1.5 mL liquid vial, and 400 μL methanol was added thereto, and the obtained mixture was homogeneously mixed under ultrasound. […]

[3] = Acceleration test (40° C./relative humidity of 75%, open), 5 days
[4] = Acceleration test (40° C./relative humidity of 75%, open), 10 days
[5] = High humidity (room temperature/relative humidity of 92.5%, open), 5 days
[6] = High humidity (room temperature/relative humidity of 92.5%, open), 10 days
[7] = High temperature (60° C., open), 5 days
[8] = High temperature (60° C., open), 10 days
[9] = Light radiation (total illumination: 1.2 × 10^6 Lux·hr), 5 days
[10] = Light radiation (total illumination: 1.2 × 10^6 Lux·hr), 10 days

Row | SMILES | Appearance ([1]; 0 day (initial)) | Content (%) ([1]; 0 day (initial)) | Total Impurities (%) ([1]; 0 day (initial)) | Appearance [1, 3] | Appearance [1, 4] | Content (%) [1, 4] [%] | Total Impurities (%) [1, 4] [%] | Appearance [1, 5] | Appearance [1, 6] | Content (%) [1, 6] [%] | Total Impurities (%) [1, 6] [%] | Appearance [1, 7] | Appearance [1, 8] | Content (%) [1, 8] [%] | Total Impurities (%) [1, 8] [%] | Appearance [1, 9] | Appearance [1, 10] | Content (%) [1, 10] [%] | Total Impurities (%) [1, 10] [%] | photostability (stability under light radiation), conclusion in words [1] | other results
1 | C=CC(=O)N[C@H]1COC[C@H]1Nc1ncc(/C=C(\F)c2c(Cl)c(OC)cc(OC)c2Cl)cn1 [Crystal Form A] | Off-white | 99.11 | 1.12 | Off-white | Off-white | 98.98 | 1.18 | Off-white | Off-white | 98.85 | 1.22 | Off-white | Off-white | 99.06 | 1.18 | Off-white | Off-white | 99.13 | 1.10 | relatively good | stability under acceleration conditions, conclusion in words [1]: relatively good; stability under high humidity conditions, conclusion in words [1]: slightly less stability; thermal stability (high temperature), conclusion in words [1]: relatively good; stability in the acetonitrile-water solution ([2]; stirring in acetonitrile-water (1:1) at 40° C. for 2 days): substantially high stability; stability in the ethyl acetate solution ([2]; stirring in ethyl acetate at 40° C. for 2 days): substantially high stability
2 | C=CC(=O)N[C@H]1COC[C@H]1Nc1ncc(/C=C(\F)c2c(Cl)c(OC)cc(OC)c2Cl)cn1 [Crystal Form D] | Off-white | 99.33 | 0.90 | Off-white | Off-white | 99.38 | 0.96 | Off-white | Off-white | 99.36 | 0.89 | Off-white | Off-white | 99.32 | 0.94 | Off-white | Off-white | 99.41 | 0.86 | good | stability under acceleration conditions, conclusion in words [1]: good; stability under high humidity conditions, conclusion in words [1]: good; thermal stability (high temperature), conclusion in words [1]: good; stability in the ethanol solution ([2]; stirring in ethanol at 40° C. for 2 days): substantially high stability
